Test results from US9512106B2, “Smoothened modulators and methods of use thereof” (Duke University, priority 2012, dated 2016).
Where two headings read alike, the source gives them in different places.

Experiments:
[1] = biological target: T1, Smo-633 (Homo sapiens, UniProt Q99835); assay: Smo/βarr2-GFP translocation high-throughput imaging assay (antagonist mode); type: cell-based; conditions: for inhibition of intracellular βarr2-GFP aggregation: U2OS cells with Smo-633 and βarr2-GFP, 5 μM
T1 construct: expressed in transfected cells
From the text: U2OS cells stably expressing a chimera Smo-633 receptor and βarr2-GFP were used in HTS screening.
To identify novel Smo inhibitors, we screened chemical libraries using our confocal imaging, cell-based platform assay as the primary high-throughput screening assay. […] Thus, small molecule inhibitors of Smo are identified by the loss of the punctate pattern.
To control for receptor specificity and to rule-out non-specific mechanisms, hits were cross-screened in the same assay format using the vasopressin2 receptor (V2R), a different seven-transmembrane receptor. In this control assay, cells transfected with V2R and βarr2-GFP are stimulated with the agonist arginine vasopressin. […] This control assay helps ensure the mechanism of inhibition is Smo receptor specific and allows molecules with non-specific mechanisms of inhibition to be ruled-out.

[2] = Storage of the active impurity in solution, activity retained; type: physicochemical; conditions: room temperature, DMSO or methanolic solution, 1 week
From the text: Subsequent characterization of this impurity by high-resolution mass spectrometry (HRMS) and by extensive NMR analysis allowed assignment of structure to the impurity as shown for Compound A8 (FIG. 2A). Confirmation of the structural assignment was achieved by synthesis of authentic material using the route described in FIG. 2B. Synthesized material matched the isolated material from the library sample by extensive NMR analysis, HRMS, TLC and HPLC.

[3] = biological target: T2, wild-type Smo (Homo sapiens, UniProt Q99835); assay: [3H]-cyclopamine competitive binding, wild-type Smo; conditions: 25 nM [3H]-cyclopamine; for displacement of [3H]-cyclopamine from wild-type Smo: U2OS cells overexpressing wild-type Smo; for Ki: fixed U2OS cells overexpressing wild-type Smo, mean±SEM, read-out: Ki, displacement of [3H]-cyclopamine from Smo
T2 construct: expressed in transfected cells; host or cells: U2OS
Description: (§1) FIG. 3. […] The displacement data were analyzed by fitting to a one-site competition curve using Graphpad Prism. Data were acquired in triplicates from three independent experiments and are presented as the mean±SEM.
(§2) For competitive binding assays, U2OS cells overexpressing wild-type Smo or Smo-D473H mutant receptors were grown in 24-well plates and fixed with 4% (v/v) formaldehyde/PBS for 20 min at room temperature (RT).

[4] = tested on: Shh-induced Gli reporter activity; assay: Gli-luciferase reporter assay in Shh-LIGHT2 cells; type: cell-based
Description: FIG. 4. […] Cells were then exposed to [3H]-thymidine for 16 h and [3H]-thymidine incorporation was measured. Data were fit using Graphpad Prism (mean±SEM, n=3).
The Gli-luciferase assay was conducted in Shh-LIGHT2 cells, a clonal NIH3T3 cell line stably incorporating Gli-dependent firefly luciferase and constitutive Renilla luciferase reporters35. Cells were treated with purified Sonic Hedgehog protein (50 ng/mL) together with the corresponding compounds for 2 days. The reporter activity was determined by using the Dual-Luciferase Reporter Assay System (Promega).

[5] = tested on: Hh-induced hair growth; assay: Hair regrowth after depilation, topical treatment; type: in vivo, mouse; conditions: C57BL/6 female mice, 0.5 mM, 30 μl topically daily for two weeks
Description: Eight-week-old C57BL/6 female mice were shaved on the dorsal surface and depilated with Nair® (Carter-Wallace, New York, N.Y.). Briefly, the bottom half of the shaved area was treated with Nair for 2 min, and the depilated area rinsed with water to remove residual Nair. Compound A8 was dissolved in a vehicle of 95% acetone/5% DMSO at a concentration of 0.5 mM, and 30 μl of A8 solution or the vehicle were applied topically to the depilated area of mice daily for two weeks. Mice were anesthetized briefly using 3% isoflurane anesthetic inhalant during all procedures. Five mice were included in each treatment group. All animals were treated in accordance with protocols approved by Institutional Animal Care and Use Committee at Duke University.
Hedgehog signaling plays a key role in regulating hair follicle growth40. To determine the efficacy of the novel Smo inhibitor A8 in suppressing Hh signaling in vivo, we used a model of hedgehog inhibition that examines inhibition of hair-growth41-43. Eight-week old Female C57BL mice in telogen phase of the hair cycle were used in these experiments44. Chemical depilation with Nair® induces anagen phase and regrowth of hair by activating the Hh signaling pathway. In our experiments, most of the hair on the back of vehicle treated mice grew back 2 weeks after removal with Nair (data not shown).

[6] = biological target: T3, Smo-D473H (Homo sapiens, UniProt Q99835, D473H); assay: [3H]-cyclopamine competitive binding, Smo-D473H mutant; conditions: for competition for binding / displacement of [3H]-cyclopamine from Smo-D473H: U2OS cells overexpressing Smo-D473H
T3 construct: expressed in transfected cells; host or cells: U2OS
Description: as §1, §2

[7] = tested on: cerebellar granular cell precursor (GCP) cells; assay: GCP cell proliferation ([3H]-thymidine incorporation); type: cell-based, mouse; conditions: read-out: IC50, inhibition of GCP proliferation
Description: FIG. 4. Compound A8 inhibits Gli-reporter activity and GCP proliferation. […] Cells were then exposed to [3H]-thymidine for 16 h and [3H]-thymidine incorporation was measured. Data were fit using Graphpad Prism (mean±SEM, n=3).
Primary neuronal granular cell precursor (GCP) cells were obtained from the cerebellum of 7-day postnatal C57BL/6 mice and labeled with [3H]-thymidine. Proliferation assays were performed as previously described28.

[8] = biological target: T4, vasopressin2 receptor (V2R) (Homo sapiens, UniProt P30518); conditions: cells transfected with V2R and βarr2-GFP, arginine vasopressin stimulated; cited from earlier work
T4 construct: expressed in transfected cells

[9] = mouse GCP cells, 48 hours with Shh, then [3H]-thymidine 16 h, mean±SEM, n=3

T3 sequence (Q99835 28-787 D473H): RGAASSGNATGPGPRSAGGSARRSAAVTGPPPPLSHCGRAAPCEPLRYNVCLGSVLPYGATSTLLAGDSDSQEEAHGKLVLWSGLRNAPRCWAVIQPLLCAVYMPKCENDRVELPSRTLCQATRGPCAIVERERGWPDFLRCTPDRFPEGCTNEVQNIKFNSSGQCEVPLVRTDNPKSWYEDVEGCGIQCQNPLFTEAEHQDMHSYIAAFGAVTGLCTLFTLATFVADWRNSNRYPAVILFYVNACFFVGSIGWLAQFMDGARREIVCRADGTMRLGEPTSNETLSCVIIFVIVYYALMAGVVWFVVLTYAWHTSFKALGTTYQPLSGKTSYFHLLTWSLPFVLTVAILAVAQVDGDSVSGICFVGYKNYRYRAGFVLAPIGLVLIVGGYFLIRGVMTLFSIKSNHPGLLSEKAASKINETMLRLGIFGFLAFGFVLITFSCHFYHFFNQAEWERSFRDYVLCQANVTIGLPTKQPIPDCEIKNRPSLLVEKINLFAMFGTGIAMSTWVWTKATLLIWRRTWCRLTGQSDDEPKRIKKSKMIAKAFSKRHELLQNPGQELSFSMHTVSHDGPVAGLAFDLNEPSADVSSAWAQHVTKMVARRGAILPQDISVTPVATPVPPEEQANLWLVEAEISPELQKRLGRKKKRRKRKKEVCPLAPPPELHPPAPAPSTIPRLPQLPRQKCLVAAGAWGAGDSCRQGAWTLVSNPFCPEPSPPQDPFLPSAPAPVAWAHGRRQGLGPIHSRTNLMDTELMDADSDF
T1 sequence (Q99835 with tags, fused parts or gaps limits assumed): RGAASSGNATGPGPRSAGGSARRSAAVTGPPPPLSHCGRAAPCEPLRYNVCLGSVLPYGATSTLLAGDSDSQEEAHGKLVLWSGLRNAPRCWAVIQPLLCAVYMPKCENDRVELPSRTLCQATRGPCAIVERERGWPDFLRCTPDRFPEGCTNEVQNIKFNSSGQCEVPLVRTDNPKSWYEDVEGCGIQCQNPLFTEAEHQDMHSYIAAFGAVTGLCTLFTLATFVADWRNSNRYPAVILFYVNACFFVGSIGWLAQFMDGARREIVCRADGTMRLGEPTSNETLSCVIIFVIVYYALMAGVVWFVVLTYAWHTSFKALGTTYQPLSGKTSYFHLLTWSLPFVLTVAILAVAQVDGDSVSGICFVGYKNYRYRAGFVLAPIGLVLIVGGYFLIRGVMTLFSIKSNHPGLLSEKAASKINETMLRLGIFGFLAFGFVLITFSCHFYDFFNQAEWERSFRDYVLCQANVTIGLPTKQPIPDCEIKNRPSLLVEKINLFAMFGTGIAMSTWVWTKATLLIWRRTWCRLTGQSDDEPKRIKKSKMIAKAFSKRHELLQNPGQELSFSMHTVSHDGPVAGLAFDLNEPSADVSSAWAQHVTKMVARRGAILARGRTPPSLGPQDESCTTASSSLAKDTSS
T2 sequence (Q99835 28-787): as the sequence (Q99835 28-787 D473H) above, with H446D counted along it
T4 sequence (P30518 whole entry, species assumed): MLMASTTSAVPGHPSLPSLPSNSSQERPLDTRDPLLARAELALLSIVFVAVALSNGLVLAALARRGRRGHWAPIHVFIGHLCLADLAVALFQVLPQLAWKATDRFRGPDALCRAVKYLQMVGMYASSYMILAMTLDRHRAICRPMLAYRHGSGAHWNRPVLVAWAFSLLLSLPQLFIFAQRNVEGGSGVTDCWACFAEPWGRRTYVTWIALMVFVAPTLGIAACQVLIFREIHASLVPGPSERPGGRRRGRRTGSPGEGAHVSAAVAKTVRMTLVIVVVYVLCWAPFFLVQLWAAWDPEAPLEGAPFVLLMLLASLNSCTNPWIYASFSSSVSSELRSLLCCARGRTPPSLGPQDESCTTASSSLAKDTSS

Structure (SMILES)	inhibition of intracellular βarr2-GFP aggregation [1]	displacement of [3H]-cyclopamine from wild-type Smo [3]	Ki [3]	competition for binding / displacement of [3H]-cyclopamine from Smo-D473H [6]	IC50 [7, 9]	further results
O=C(NC1CCN(Cc2ccc(N3CCC(NC(=O)c4cccc(-c5cccnc5)c4)CC3)nc2)CC1)c1cccc(-c2cccnc2)c1 [Compound A8]	activity of the synthesized material was confirmed	completely displaced	37.9 ± 3.7 nM	completely displace	16.6 ± 2.3 nM	activity after storage in solution [2]: retained activity; IC50 ([4]; Shh-LIGHT2 cells, Sonic Hedgehog 50 ng/mL, mean±SEM, n=3, read-out: IC50, inhibition of Shh-induced Gli reporter activity): 2.6 ± 0.4 nM; Hh-induced hair growth [5]: largely inhibited; Ki ([6]; fixed U2OS cells overexpressing Smo-D473H, 25 nM [3H]-cyclopamine, mean±SEM, read-out: Ki, displacement of [3H]-cyclopamine from Smo-D473H receptors): 478 ± 123 nM
CS(=O)(=O)c1ccc(C(=O)Nc2ccc(Cl)c(-c3ccccn3)c2)c(Cl)c1 [GDC-0449]	–	completely displaced	–	largely ineffective	16.4 ± 2.5 nM	displacement of [3H]-cyclopamine from Smo-D473H at high concentration ([6]; 10 μM compound): only partially displaced
Cc1c(C(=O)Nc2ccc(N3C[C@@H](C)O[C@@H](C)C3)nc2)cccc1-c1ccc(OC(F)(F)F)cc1 [LDE-225]	–	completely displaced	6 ± 1.4 nM	largely ineffective	–	–
CCN(C)Cc1ccc(N2CCC(NC(=O)c3cccc(-c4cccnc4)c3)CC2)nc1 [Tripos 3910]	–	–	–	–	–	Smo antagonist activity of resynthesized sample compared to previous test samples ([1]; material synthesized at Duke, assay not specified): substantially reduced Smo antagonist activity
CC1=C2C[C@H]3[C@@H](CC=C4C[C@@H](O)CC[C@@]43C)[C@@H]2CC[C@]12O[C@@H]1C[C@H](C)CN[C@H]1[C@H]2C [cyclopamine]	inhibits the aggregation of βarr2-GFP	completely displaced	–	completely displace	–	inhibition of aggregation of V2R and βarr2-GFP [8]: not inhibited; inhibition of the Gli-reporter activity ([4]; 1 μM concentration): strong inhibition; IC50 ([7]; Mus musculus): 414 ± 73 nM
